Measurements: paper PMC10945556, “Design, Synthesis, and Antifungal Activity of 3-Substituted-2(5H)-Oxaboroles” (ACS Medicinal Chemistry Letters, 2024)
Converted amounts (≈) assume the structure as drawn.

What was measured:
P. aeruginosa = assay: MIC, microbroth dilution; assay type: cell-based, Pseudomonas aeruginosa
T. mentagrophytes = assay: MIC, dose-dependent solid media assay; assay type: cell-based, Trichophyton mentagrophytes
P. chrysogenum = assay: MIC, dose-dependent solid media assay; assay type: cell-based, Penicillium chrysogenum
C. albicans = assay: MIC, microbroth dilution; assay type: cell-based, Candida albicans
B. cereus = assay: MIC, microbroth dilution; assay type: cell-based, Bacillus cereus
S. cerevisiae = assay: MIC, microbroth dilution; assay type: cell-based, Saccharomyces cerevisiae
[1] = tested on: Methicillin resistant Staphylococcus aureus; assay: MIC, microbroth dilution; assay type: cell-based; conditions: S. aureus (MRSA)
E. coli = assay: MIC, microbroth dilution; assay type: cell-based, Escherichia coli
A. flavus = assay: MIC, dose-dependent solid media assay; assay type: cell-based, Aspergillus flavus
[2] = Pseudomonas aeruginosa, value in parentheses
[3] = Trichophyton mentagrophytes, value in parentheses
[4] = Penicillium chrysogenum, value in parentheses
[5] = Candida albicans, value in parentheses
[6] = Bacillus cereus, value in parentheses
[7] = Saccharomyces cerevisiae, value in parentheses
[8] = Staphylococcus aureus, value in parentheses
[9] = Escherichia coli, value in parentheses
[10] = Aspergillus flavus, value in parentheses

| Structure (SMILES) | MIC (P. aeruginosa; Pseudomonas aeruginosa) [µg/mL] | MIC (P. aeruginosa; [2]) [µM] | MIC (T. mentagrophytes; Trichophyton mentagrophytes) [µg/mL] | MIC (T. mentagrophytes; [3]) [µM] | MIC (P. chrysogenum; Penicillium chrysogenum) [µg/mL] | MIC (P. chrysogenum; [4]) [µM] | MIC (C. albicans; Candida albicans) [µg/mL] | MIC (C. albicans; [5]) [µM] | MIC (B. cereus; Bacillus cereus) [µg/mL] | MIC (B. cereus; [6]) [µM] | MIC (S. cerevisiae; Saccharomyces cerevisiae) [µg/mL] | MIC (S. cerevisiae; [7]) [µM] | MIC ([1]; Staphylococcus aureus) [µg/mL] | MIC [1, 8] [µM] | MIC (E. coli; Escherichia coli) [µg/mL] | MIC (E. coli; [9]) [µM] | MIC (A. flavus; Aspergillus flavus) [µg/mL] | MIC (A. flavus; [10]) [µM] | also measured |
| --- | --- | --- | --- | --- | --- | --- | --- | --- | --- | --- | --- | --- | --- | --- | --- | --- | --- | --- | --- |
| OB1OCC=C1c1ccccc1F [Compound 6d] | > 50 | > 281 | > 50 | > 281 | 25 | 140 | > 50 | > 281 | > 50 | > 281 | 21 ± 4 | 118 | > 50 | > 281 | > 50 | > 281 | > 50 | > 281 |  |
| C[C@@H]1[C@H](O)[C@@H](C)/C=C/C=C/CC/C=C/C=C/C=C/C=C/C(O[C@H]2O[C@H](C)[C@@H](O)[C@H](N)[C@@H]2O)CC2O[C@](O)(CC(O)C(O)CCC(O)CC(O)CC(O)CC(=O)O[C@H]1C)CC(O)C2C(=O)O (stereo partly drawn) [Nystatin, reference compound] |  |  |  |  |  |  |  |  |  |  |  |  |  |  |  |  |  |  | MIC PA (P. aeruginosa): > 50 µg/mL; MIC (P. aeruginosa; value in parentheses): > 54.0 µM; MIC TM (T. mentagrophytes): 3.13 ± 0 µg/mL (≈ 3.38 µM); MIC (T. mentagrophytes; value in parentheses): 3.38 µM; MIC PC (P. chrysogenum): 1.56 ± 0 µg/mL (≈ 1.68 µM); MIC (P. chrysogenum; value in parentheses): 1.68 µM; MIC CA (C. albicans): 0.78 ± 0 µg/mL (≈ 0.842 µM); MIC (C. albicans; value in parentheses): 0.84 µM; MIC BC (B. cereus): > 50 µg/mL; MIC (B. cereus; value in parentheses): > 54.0 µM; MIC SC (S. cerevisiae): 1.56 ± 0 µg/mL (≈ 1.68 µM); MIC (S. cerevisiae; value in parentheses): 1.68 µM; MIC SA [1]: > 50 µg/mL; MIC ([1]; value in parentheses): > 54.0 µM; MIC EC (E. coli): > 50 µg/mL; MIC (E. coli; value in parentheses): > 54.0 µM; MIC AF (A. flavus): 2.6 ± 0.5 µg/mL (≈ 2.81 µM); MIC (A. flavus; value in parentheses): 2.81 µM |
| COc1cccc(C2=CCOB2O)c1 [Compound 6o] | > 50 | > 263 | > 50 | > 263 | 50 | 263 | > 50 | > 263 | > 50 | > 263 | 50 | 263 | > 50 | > 263 | > 50 | > 263 | > 50 | > 263 |  |
| OB1OCC=C1c1cccc(I)c1 [Compound 6l] | > 50 | > 175 | 25 | 87.4 | 6.25 | 21.9 | > 50 | > 175 | > 50 | > 175 | > 50 | > 175 | > 50 | > 175 | > 50 | > 175 | 25 | 87.4 |  |
| OB1OCC=C1c1cccc(Cl)c1 [Compound 6f] | > 50 | > 258 | 25 | 129 | 12.5 | 64.4 | > 50 | > 258 | > 50 | > 258 | 21 ± 4 | 108 | > 50 | > 258 | > 50 | > 258 | 25 | 129 |  |
| C[C@@H]1C[C@@H]([C@H](O)CC2CC(=O)NC(=O)C2)C(=O)[C@@H](C)C1 [Cycloheximide, reference compound] | > 50 | > 178 | > 50 | > 178 | 12.5 | 44.4 | > 50 | > 178 | > 50 | > 178 | 1.56 | 5.54 | > 50 | > 178 | > 50 | > 178 | > 50 | > 178 |  |
| COc1ccc(C2=CCOB2O)cc1 [Compound 6n] | > 50 | > 263 | > 50 | > 263 | > 50 | > 263 | > 50 | > 263 | > 50 | > 263 | > 50 | > 263 | > 50 | > 263 | > 50 | > 263 | > 50 | > 263 |  |
| OB1OCC=C1c1ccccc1Cl [Compound 6g] | > 50 | > 258 | > 50 | > 258 | > 50 | > 258 | > 50 | > 258 | > 50 | > 258 | 50 | 258 | > 50 | > 258 | > 50 | > 258 | > 50 | > 258 |  |
| OB1OCC=C1C1=CCCCC1 [Compound 6y] | > 50 | > 305 | > 50 | > 305 | > 50 | > 305 | > 50 | > 305 | > 50 | > 305 | 21 ± 4 | 128 | > 50 | > 305 | > 50 | > 305 | > 50 | > 305 |  |
| OB1OCc2cc(F)ccc21 [Compound 1, tavaborole, reference compound] | > 50 | > 329 | 0.78 | 5.14 | 1 ± 0.3 | 6.58 | 2.3 ± 0.8 | 15.1 | > 50 | > 329 | 0.26 ± 0.06 | 1.71 | ~50 | > 329 | 17 ± 4 | 112 | 0.78 | 5.14 |  |
| Cc1ccccc1C1=CCOB1O [Compound 6v] | > 50 | > 287 | > 50 | > 287 | > 50 | > 287 | > 50 | > 287 | > 50 | > 287 | > 50 | > 287 | > 50 | > 287 | > 50 | > 287 | > 50 | > 287 |  |
| OB1OCC=C1c1cccc(F)c1 [Compound 6c] | > 50 | > 281 | 50 | 281 | 25 | 140 | > 50 | > 281 | > 50 | > 281 | 10.4 ± 2 | 58.4 | > 50 | > 281 | > 50 | > 281 | 50 | 281 |  |
